Source: patent US20230066011A1, “PYRROLOPYRIMIDINE DERIVATIVE, AND PHARMACEUTICAL COMPOSITION FOR PREVENTING OR TREATING PROTEIN KINASE-RELATED DISEASE COMPRISING SAME AS ACTIVE INGREDIENT” (VORONOI CO., LTD., priority 2019, published 2023)

Columns and labels:
human GST-DYRK1A = target: T1, human GST-DYRK1A (Homo sapiens, UniProt Q13627); assay: GST-DYRK1A enzyme inhibition, ADP-Glo kinase assay; assay type: biochemical; conditions: ATP 10 μM, GST-DYRK1A full length, read-out: DYRK1 IC50
T1 construct: purified human GST-DYRK1A (full length, Thermo Scientifics) enzyme; purchased Thermo Scientifics
Protocol: (§1) To evaluate an inhibitory activity of the compound according to the present invention against LRRK2, LRRK2 (G2019S), DYRK1, CLK1, and TTK kinases, experiments were performed as follows.
(§2) Each of the Example compounds was reacted with a purified human GST-DYRK1A (full length, Thermo Scientifics) enzyme to evaluate an ability to inhibit an enzyme using a method as described below. A composition of 40 mM Tris-HCl (pH 7.4), 20 mM MgCl2, 0.5 mg/mL BSA, and 50 μM DTT was used as a reaction buffer, and all reactions of test substances were performed in the reaction buffer. In the test, purified ATP (10 μM) and a specific substrate solution were reacted with a human GST-DYRK1A (full length, 10 ng) enzyme at 25° C. for an hour, and the enzyme activities were then determined using an in vitro ADP-Glo™ kinase assay (Promega). An enzyme-activity reaction solution, an ADP-Glo reaction solution, and an enzyme-ability detection solution were reacted at a ratio of 2:2:1 to measure a degree of inhibition of the enzyme activity with luminescence. The degree of inhibition of the enzyme activity according to the treatment concentration of each of the compounds was calculated based on the fluorescence of the enzyme activity of the solvent control which was not treated with the compound. In this case, the concentration of each of the compounds inhibiting 50% of the enzyme activity was determined to be an IC50 (nM) value, and the IC50 (nM) value of each of the compounds was determined from 3 sets of data, and calculated using Prism (Version 5.01; GraphPad) software.

human GST-CLK1 = target: T2, human GST-CLK1 (Homo sapiens, UniProt P49759); assay: GST-CLK1 enzyme inhibition, ADP-Glo kinase assay; assay type: biochemical; conditions: ATP 10 μM, GST-CLK1 129-end
T2 construct: purified human GST-CLK1 (129-end, SignalChem) enzyme; purchased SignalChem
Protocol: as §1
as §2, with “GST-CLK1 (129-end, SignalChem)” for “GST-DYRK1A (full length, Thermo Scientifics)”, “GST-CLK1 (129-end, 3” for “GST-DYRK1A (full length, 10”, “value. The” for “value, and the”

T2 sequence (P49759 129-484 limits assumed): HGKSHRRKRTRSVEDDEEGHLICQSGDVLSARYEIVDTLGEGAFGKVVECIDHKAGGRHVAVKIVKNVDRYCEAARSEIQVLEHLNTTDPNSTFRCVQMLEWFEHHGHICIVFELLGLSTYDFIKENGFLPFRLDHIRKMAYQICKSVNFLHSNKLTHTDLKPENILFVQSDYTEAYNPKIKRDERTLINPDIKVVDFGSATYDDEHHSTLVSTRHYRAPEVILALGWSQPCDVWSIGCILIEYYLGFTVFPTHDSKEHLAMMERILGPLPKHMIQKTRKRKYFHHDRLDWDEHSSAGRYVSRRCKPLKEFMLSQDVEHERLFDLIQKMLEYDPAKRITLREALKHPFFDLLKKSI

Structure (SMILES)	IC50 (human GST-DYRK1A) [nM]	IC50 (human GST-CLK1) [nM]
CC[C@@H](C)Nc1nc(Nc2ccc(S(=O)(=O)N3CCC(N4CCOCC4)CC3)cc2OC)nc2[nH]ccc12 [Example 15, (R)-N^4-(sec-butyl)-N^2-(2-methoxy-4-((4-morpholinopiperidin-1-yl)sulfonyl)phenyl)-7H-pyrrolo[2,3-d]pyrimidine-2,4-diamine]	301 to 1000	301 to 1000
CC[C@@H](C)Nc1nc(Nc2ccc(S(C)(=O)=O)cc2OC)nc2[nH]ccc12 [Example 16, (R)-N^4-(sec-butyl)-N^2-(2-methoxy-4-(4-methylsulfonyl)phenyl)-7H-pyrrolo[2,3-d]pyrimidine-2,4-diamine]	301 to 1000	301 to 1000
CC[C@H](C)Nc1nc(Nc2ccc(S(=O)(=O)N3CCC(N4CCOCC4)CC3)cc2OC)nc2[nH]ccc12 [Example 17, (S)-N^4-(sec-butyl)-N^2-(2-methoxy-4-((4-morpholinopiperidin-1-yl)sulfonyl)phenyl)-7H-pyrrolo[2,3-d]pyrimidine-2,4-diamine]	301 to 1000	301 to 1000
CC[C@H](C)Nc1nc(Nc2ccc(S(C)(=O)=O)cc2OC)nc2[nH]ccc12 [Example 18, (S)-N^4-(sec-butyl)-N^2-(2-methoxy-4-(4-methylsulfonyl)phenyl)-7H-pyrrolo[2,3-d]pyrimidine-2,4-diamine]	301 to 1000	301 to 1000
COc1cc(S(C)(=O)=O)ccc1Nc1nc(N[C@@H]2CCOC2)c2cc[nH]c2n1 [Example 28, (R)-N^2-(2-methoxy-4-(methylsulfonyl)phenyl)-N^4-(tetrahydrofuran-3-yl)-7H-pyrrolo[2,3-d]pyrimidine-2,4-diamine]	301 to 1000	301 to 1000
COc1cc(S(=O)(=O)N2CCC(N3CCOCC3)CC2)ccc1Nc1nc(N[C@H]2CCOC2)c2cc[nH]c2n1 [Example 29, (S)-N^2-(2-methoxy-4-((4-morpholinopiperidin-1-yl)sulfonyl)phenyl)-N^4-(tetrahydrofuran-3-yl)-7H-pyrrolo[2,3-d]pyrimidine-2,4-diamine]	301 to 1000	301 to 1000
O=C(c1ccc(Nc2nc(N[C@@H]3CCOC3)c3cc[nH]c3n2)c2c1OCCO2)N1CCOCC1 [Example 50, (R)-morpholino(8-((4-((tetrahydrofuran-3-yl)amino)-7H-pyrrolo[2,3-d]pyrimidin-2-yl)amino)-2,3-dihydrobenzo[b][1,4]dioxin-5-yl)methanone]	301 to 1000	301 to 1000
O=C(c1ccc(Nc2nc(N[C@H]3CCOC3)c3cc[nH]c3n2)c2c1OCCO2)N1CCOCC1 [Example 51, (S)-morpholino(8-((4-((tetrahydrofuran-3-yl)amino)-7H-pyrrolo[2,3-d]pyrimidin-2-yl)amino)-2,3-dihydrobenzo[b][1,4]dioxin-5-yl)methanone]	301 to 1000	301 to 1000
CC[C@H](C)Nc1nc(Nc2ccc(S(C)(=O)=O)cc2OC)nc2[nH]cc(C#N)c12 [Example 102, (S)-4-(sec-butylamino)-2-((2-methoxy-4-(methylsulfonyl)phenyl)amino)-7H-pyrrolo[2,3-d]pyrimidine-5-carbonitrile]	301 to 1000	301 to 1000
COc1cc(S(C)(=O)=O)ccc1Nc1nc(N[C@H]2CCOC2)c2c(C#N)c[nH]c2n1 [Example 108, (S)-2-((2-methoxy-4-(methylsulfonyl)phenyl)amino)-4-((tetrahydrofuran-3-yl)amino)-7H-pyrrolo[2,3-d]pyrimidine-5-carbonitrile]	301 to 1000	< 100

Now from value to compound:

IC50 (human GST-DYRK1A) [nM]	IC50 (human GST-CLK1) [nM]	Structure (SMILES)
301 to 1000	301 to 1000	COc1cc(P(C)(C)=O)ccc1Nc1nc(NC(C)C)c2c(C#N)c[nH]c2n1 [Example 114, 2-((4-(dimethylphosphoryl)-2-methoxyphenyl)amino)-4-(isopropylamino)-7H-pyrrolo[2,3-d]pyrimidine-5-carbonitrile]
301 to 1000	< 100	COCCNc1nc(Nc2ccc(P(C)(C)=O)cc2OC)nc2[nH]cc(C#N)c12 [Example 115, 2-((4-(dimethylphosphoryl)-2-methoxyphenyl)amino)-4-((2-methoxyethyl)amino)-7H-pyrrolo[2,3-d]pyrimidine-5-carbonitrile]
301 to 1000	< 100	COc1cc(P(C)(C)=O)ccc1Nc1nc(NC2CC2)c2c(C#N)c[nH]c2n1 [Example 116, 4-(cyclopropylamino)-2-((4-(dimethylphosphoryl)-2-methoxyphenyl)amino)-7H-pyrrolo[2,3-d]pyrimidine-5-carbonitrile]
301 to 1000	< 100	N#Cc1c[nH]c2nc(Nc3ccc(C(=O)N4CCOCC4)c4c3OCCO4)nc(N[C@@H]3CCOC3)c12 [Example 127, (R)-2-((8-(morpholine-4-carbonyl)-2,3-dihydrobenzo[b][1,4]dioxin-5-yl)amino)-4-((tetrahydrofuran-3-yl)amino)-7H-pyrrolo[2,3-d]pyrimidine-5-carbonitrile]
301 to 1000	101 to 300	N#Cc1c[nH]c2nc(Nc3ccc(C(=O)N4CCOCC4)c4c3OCCO4)nc(N[C@H]3CCOC3)c12 [Example 128, (S)-2-((8-(morpholine-4-carbonyl)-2,3-dihydrobenzo[b][1,4]dioxin-5-yl)amino)-4-((tetrahydrofuran-3-yl)amino)-7H-pyrrolo[2,3-d]pyrimidine-5-carbonitrile]
301 to 1000	301 to 1000	N#Cc1c[nH]c2nc(Nc3ccc(C(=O)N4CCOCC4)c4c3OCCO4)nc(NC3CCOCC3)c12 [Example 129, 2-((8-(morpholine-4-carbonyl)-2,3-dihydrobenzo[b][1,4]dioxin-5-yl)amino)-4-((tetrahydro-2H-pyran-4-yl)amino)-7H-pyrrolo[2,3-d]pyrimidine-5-carbonitrile]
301 to 1000	< 100	CC(C)CNc1nc(Nc2ccc(C(=O)N3CCC(N4CCOCC4)CC3)c3c2OCCO3)nc2[nH]cc(C#N)c12 [Example 139, 4-(isobutylamino)-2-((8-(4-morpholinopiperidine-1-carbonyl)-2,3-dihydrobenzo[b][1,4]dioxin-5-yl)amino)-7H-pyrrolo[2,3-d]pyrimidine-5-carbonitrile]
301 to 1000	< 100	N#Cc1c[nH]c2nc(Nc3ccc(C(=O)N4CCC(N5CCOCC5)CC4)c4c3OCCO4)nc(NC3CCCCC3)c12 [Example 142, 4-(cyclohexylamino)-2-((8-(4-morpholinopiperidine-1-carbonyl)-2,3-dihydrobenzo[b][1,4]dioxin-5-yl)amino)-7H-pyrrolo[2,3-d]pyrimidine-5-carbonitrile]
301 to 1000	301 to 1000	CNc1nc(Nc2ccc(P3(=O)CCN(C4COC4)CC3)cc2OC)nc2[nH]cc(C#N)c12 [Example 154, 2-((2-methoxy-4-(1-(oxetan-3-yl)-4-oxido-1,4-azaphosphinan-4-yl)phenyl)amino)-4-(methylamino)-7H-pyrrolo[2,3-d]pyrimidine-5-carbonitrile]
301 to 1000	301 to 1000	COc1cc(S(C)(=O)=O)ccc1Nc1nc(NCC(C)C)c2c(C(F)(F)F)c[nH]c2n1 [Example 180, N^4-isobutyl-N^2-(2-methoxy-4-(methylsulfonyl)phenyl)-5-(trifluoromethyl)-7H-pyrrolo[2,3-d]pyrimidine-2,4-diamine]
301 to 1000	301 to 1000	O=C(c1ccc(Nc2nc(NCC3CCC3)c3c(C(F)(F)F)c[nH]c3n2)c2c1OCCO2)N1CCOCC1 [Example 193, (8-((4-((cyclobutylmethyl)amino)-5-(trifluoromethyl)-7H-pyrrolo[2,3-d]pyrimidin-2-yl)amino)-2,3-dihydrobenzo[b][1,4]dioxin-5-yl)(morpholino)methanone]
101 to 300	301 to 1000	COc1cc(P(C)(C)=O)ccc1Nc1nc(NC2CCCCC2)c2c(C(F)(F)F)c[nH]c2n1 [Example 196, (4-((4-(cyclohexylamino)-5-(trifluoromethyl)-7H-pyrrolo[2,3-d]pyrimidin-2-yl)amino)-3-methoxyphenyl)dimethylphosphine oxide]
